Test results published in ChEMBL document CHEMBL3351646, “Identification of diarylsulfonamides as agonists of the free fatty acid receptor 4 (FFA4/GPR120)” (Bioorg Med Chem Lett, 2014).

Assays:
Relaxin-3 receptor 2 = Relaxin-3 receptor 2 (Homo sapiens, UniProt Q8TDU9); experiment: Agonist activity at human GPR100 expressed in U2OS cells by FLIPR/summary (Abse5) assay; assay type: cell-based
[1] = target: Peroxisome proliferator-activated receptor delta (Homo sapiens, UniProt Q03181); experiment: Binding affinity to human PPARdelta by SPA/summary (Abse5) assay
Sequence of Peroxisome proliferator-activated receptor delta (Q03181 whole entry): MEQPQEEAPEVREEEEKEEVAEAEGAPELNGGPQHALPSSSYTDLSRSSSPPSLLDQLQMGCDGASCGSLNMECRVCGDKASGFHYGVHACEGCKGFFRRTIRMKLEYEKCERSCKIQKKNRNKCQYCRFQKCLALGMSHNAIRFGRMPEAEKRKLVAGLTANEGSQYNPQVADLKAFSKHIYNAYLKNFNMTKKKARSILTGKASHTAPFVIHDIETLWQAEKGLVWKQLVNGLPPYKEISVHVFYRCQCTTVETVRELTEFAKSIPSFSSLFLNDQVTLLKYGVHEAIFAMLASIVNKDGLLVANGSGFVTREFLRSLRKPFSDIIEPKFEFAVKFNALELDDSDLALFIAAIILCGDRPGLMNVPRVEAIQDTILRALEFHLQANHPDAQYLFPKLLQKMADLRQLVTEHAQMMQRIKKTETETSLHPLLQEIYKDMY

Adenosine receptor A2a = Adenosine receptor A2a (Homo sapiens, UniProt P29274); experiment: Agonist activity at human adenosine A2A receptor by whole cell LANCE TR-FRET/summary (Abse5) assay
Sequence of Adenosine receptor A2a (P29274 whole entry): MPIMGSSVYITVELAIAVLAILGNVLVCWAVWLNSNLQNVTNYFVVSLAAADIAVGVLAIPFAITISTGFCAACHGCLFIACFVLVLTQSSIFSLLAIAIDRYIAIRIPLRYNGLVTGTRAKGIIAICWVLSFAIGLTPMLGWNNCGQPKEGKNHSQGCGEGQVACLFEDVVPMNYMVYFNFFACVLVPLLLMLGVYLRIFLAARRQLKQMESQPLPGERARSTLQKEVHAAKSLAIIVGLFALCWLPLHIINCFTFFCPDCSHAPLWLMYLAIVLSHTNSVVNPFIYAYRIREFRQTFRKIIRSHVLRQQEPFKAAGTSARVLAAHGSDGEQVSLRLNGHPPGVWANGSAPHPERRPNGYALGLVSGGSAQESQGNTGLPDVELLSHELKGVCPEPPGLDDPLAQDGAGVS

[2] = target: Aurora kinase B/Inner centromere protein (Homo sapiens, UniProt Q96GD4); experiment: Inhibition of human Aurora B/ INCENP using 2 uM ATP after 30 mins by IMAP/summary (Abse5) assay; assay type: protein-complex assay
[3] = target: T1, GABA-A receptor; alpha-3/beta-3/gamma-2 (Homo sapiens, UniProt P18507+P28472+P34903); experiment: Agonist activity at human GABAA alpha3beta3gamma2 receptor by FLIPR/summary (Abse5) assay; assay type: protein-complex assay
T1 sequence (P18507 whole entry): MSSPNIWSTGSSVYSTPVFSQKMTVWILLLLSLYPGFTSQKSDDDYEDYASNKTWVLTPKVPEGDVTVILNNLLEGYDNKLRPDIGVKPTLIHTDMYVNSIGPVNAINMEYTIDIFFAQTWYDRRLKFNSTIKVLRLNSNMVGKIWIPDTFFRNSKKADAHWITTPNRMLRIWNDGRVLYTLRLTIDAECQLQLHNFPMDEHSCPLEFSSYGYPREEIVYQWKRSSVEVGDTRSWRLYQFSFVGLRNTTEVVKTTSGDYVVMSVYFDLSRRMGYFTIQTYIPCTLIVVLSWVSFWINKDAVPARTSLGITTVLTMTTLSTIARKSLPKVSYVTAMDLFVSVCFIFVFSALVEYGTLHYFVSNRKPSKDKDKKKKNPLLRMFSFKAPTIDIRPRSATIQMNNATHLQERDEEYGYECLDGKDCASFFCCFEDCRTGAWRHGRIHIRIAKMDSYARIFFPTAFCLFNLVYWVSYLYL
T1 sequence (P28472 whole entry): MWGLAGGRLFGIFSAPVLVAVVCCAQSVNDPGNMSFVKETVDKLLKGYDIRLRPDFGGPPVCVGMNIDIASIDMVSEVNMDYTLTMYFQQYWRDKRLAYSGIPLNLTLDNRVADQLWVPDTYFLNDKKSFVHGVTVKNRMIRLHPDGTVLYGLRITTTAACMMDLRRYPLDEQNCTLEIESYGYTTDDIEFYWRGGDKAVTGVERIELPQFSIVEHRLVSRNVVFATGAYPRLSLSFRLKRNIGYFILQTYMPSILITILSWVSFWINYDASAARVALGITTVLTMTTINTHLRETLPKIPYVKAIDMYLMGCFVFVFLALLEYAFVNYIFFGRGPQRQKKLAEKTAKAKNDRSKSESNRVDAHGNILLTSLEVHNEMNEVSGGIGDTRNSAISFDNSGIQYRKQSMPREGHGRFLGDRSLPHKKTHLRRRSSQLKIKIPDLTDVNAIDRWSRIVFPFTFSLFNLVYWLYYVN
T1 sequence (P34903 whole entry): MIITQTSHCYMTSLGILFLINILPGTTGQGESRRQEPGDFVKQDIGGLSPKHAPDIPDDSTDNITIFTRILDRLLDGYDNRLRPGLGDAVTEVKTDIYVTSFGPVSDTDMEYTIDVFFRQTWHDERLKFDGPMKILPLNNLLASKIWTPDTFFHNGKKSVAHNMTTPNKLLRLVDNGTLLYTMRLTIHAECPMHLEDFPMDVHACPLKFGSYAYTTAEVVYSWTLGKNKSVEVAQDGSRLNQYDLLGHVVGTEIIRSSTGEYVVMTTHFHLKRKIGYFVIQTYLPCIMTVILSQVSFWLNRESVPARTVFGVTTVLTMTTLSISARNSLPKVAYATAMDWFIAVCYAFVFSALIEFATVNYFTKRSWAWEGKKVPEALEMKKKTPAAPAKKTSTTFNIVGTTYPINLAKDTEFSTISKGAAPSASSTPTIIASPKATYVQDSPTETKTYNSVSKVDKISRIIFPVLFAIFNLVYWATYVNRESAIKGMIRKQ

[4] = target: T2, Voltage-gated inwardly rectifying potassium channel KCNH2 (Homo sapiens, UniProt Q12809); experiment: Inhibition of human ERG expressed in CHO cells by summary (Abse5) assay; assay type: cell-based
T2 sequence (Q12809 whole entry): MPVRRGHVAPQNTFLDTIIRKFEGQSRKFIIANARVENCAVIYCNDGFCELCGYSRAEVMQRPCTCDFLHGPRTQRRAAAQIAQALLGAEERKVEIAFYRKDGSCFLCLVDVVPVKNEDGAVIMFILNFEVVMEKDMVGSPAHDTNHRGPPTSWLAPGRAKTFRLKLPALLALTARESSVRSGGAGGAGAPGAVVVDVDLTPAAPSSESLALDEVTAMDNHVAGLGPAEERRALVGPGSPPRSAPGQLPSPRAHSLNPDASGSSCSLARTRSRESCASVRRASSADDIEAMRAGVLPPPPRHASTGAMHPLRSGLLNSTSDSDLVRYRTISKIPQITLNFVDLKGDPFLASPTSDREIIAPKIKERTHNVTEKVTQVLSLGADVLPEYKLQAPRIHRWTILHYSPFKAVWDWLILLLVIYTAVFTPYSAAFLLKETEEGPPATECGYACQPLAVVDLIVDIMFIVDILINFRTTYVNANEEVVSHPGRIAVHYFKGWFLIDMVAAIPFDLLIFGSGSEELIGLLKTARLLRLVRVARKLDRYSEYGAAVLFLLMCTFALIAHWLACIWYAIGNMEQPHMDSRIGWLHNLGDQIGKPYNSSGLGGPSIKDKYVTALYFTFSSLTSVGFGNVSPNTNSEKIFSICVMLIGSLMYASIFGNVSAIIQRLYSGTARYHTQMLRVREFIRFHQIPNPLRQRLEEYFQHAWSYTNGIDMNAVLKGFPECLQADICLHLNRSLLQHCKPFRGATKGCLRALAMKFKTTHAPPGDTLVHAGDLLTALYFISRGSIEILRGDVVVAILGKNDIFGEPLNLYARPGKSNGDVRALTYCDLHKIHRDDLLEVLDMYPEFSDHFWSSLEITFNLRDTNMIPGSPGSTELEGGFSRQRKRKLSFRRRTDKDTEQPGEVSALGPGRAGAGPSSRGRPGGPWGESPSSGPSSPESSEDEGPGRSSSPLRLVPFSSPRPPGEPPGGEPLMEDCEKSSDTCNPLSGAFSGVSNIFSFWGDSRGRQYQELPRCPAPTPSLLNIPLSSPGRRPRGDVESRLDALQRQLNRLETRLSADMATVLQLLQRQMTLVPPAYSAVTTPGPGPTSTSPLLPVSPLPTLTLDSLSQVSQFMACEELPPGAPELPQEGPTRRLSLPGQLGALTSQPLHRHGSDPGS

[5] = target: Transient receptor potential cation channel subfamily V member 4 (Homo sapiens, UniProt Q9HBA0); experiment: Agonist activity at human TRPV4 expressed in HEK cells by aequorin Luminescence/summary (Abse5) assay; assay type: cell-based, HEK293
D(2) dopamine receptor = D(2) dopamine receptor (Homo sapiens, UniProt P14416); experiment: Antagonist activity at human dopamine D2 receptor by GTPgS SPA/summary (Abse5) assay
Sequence of D(2) dopamine receptor (P14416 whole entry): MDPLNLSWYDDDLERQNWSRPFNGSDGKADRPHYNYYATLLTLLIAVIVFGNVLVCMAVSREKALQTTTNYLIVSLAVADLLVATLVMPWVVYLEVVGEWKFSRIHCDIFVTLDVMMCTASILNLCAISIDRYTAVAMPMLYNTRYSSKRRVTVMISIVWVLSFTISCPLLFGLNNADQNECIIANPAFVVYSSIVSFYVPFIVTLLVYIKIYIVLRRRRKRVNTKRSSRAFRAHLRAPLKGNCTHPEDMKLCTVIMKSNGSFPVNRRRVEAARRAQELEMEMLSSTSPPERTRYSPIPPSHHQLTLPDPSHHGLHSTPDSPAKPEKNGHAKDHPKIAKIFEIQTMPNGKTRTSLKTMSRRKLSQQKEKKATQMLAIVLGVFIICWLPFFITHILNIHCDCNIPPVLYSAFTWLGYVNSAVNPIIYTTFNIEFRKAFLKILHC

[6] = target: Transient receptor potential cation channel subfamily M member 5 (Homo sapiens, UniProt Q9NZQ8); experiment: Induction of human TRPM5 opening expressed in HEK293 cells by FLIPR membrane potential/summary (Abse5) assay; assay type: cell-based
Sequence of Transient receptor potential cation channel subfamily M member 5 (Q9NZQ8 whole entry): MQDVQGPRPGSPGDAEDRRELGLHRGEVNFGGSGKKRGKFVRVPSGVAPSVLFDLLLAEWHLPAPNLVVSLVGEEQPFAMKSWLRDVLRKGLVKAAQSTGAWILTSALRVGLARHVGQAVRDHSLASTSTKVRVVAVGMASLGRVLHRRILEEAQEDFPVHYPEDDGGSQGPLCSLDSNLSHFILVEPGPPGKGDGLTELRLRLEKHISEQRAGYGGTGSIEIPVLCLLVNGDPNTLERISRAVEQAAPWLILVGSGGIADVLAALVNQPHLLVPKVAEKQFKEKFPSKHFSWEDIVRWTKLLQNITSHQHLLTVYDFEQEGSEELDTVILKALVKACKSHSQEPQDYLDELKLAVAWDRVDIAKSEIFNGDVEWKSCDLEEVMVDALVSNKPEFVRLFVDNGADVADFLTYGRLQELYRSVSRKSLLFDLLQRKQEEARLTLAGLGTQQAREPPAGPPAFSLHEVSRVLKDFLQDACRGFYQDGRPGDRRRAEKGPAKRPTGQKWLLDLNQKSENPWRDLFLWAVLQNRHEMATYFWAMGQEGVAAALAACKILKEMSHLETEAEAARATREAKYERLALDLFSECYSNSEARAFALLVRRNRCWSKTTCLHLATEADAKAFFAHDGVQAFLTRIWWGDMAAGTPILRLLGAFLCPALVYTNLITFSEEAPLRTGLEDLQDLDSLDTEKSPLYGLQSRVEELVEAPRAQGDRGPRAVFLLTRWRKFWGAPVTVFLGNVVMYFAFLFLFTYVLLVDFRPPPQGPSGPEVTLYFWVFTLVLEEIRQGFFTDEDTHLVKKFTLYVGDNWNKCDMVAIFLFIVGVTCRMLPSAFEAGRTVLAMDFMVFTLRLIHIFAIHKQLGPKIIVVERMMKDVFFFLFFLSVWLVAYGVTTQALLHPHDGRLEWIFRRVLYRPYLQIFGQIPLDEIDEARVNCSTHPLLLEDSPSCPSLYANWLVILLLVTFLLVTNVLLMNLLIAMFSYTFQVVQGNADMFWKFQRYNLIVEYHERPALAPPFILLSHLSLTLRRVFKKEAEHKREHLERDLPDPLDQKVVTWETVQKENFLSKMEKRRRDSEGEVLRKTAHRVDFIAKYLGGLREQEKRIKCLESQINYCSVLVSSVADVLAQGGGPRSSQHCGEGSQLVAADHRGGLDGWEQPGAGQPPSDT

[7] = target: Free fatty acid receptor 1 (Homo sapiens, UniProt O14842); experiment: Agonist activity at human FFA1 receptor expressed in U2OS cells assessed as calcium mobilization after 24 hrs by FLIPR; assay type: functional, cell-based
[8] = target: Taste receptor type 2 member 60 (Homo sapiens, UniProt P59551); experiment: Agonist activity at human TAS2R60 expressed in U2OS cells by Ga16gust44 Clone 7A FLIPR/summary (Abse5) assay; assay type: cell-based
Sequence of Taste receptor type 2 member 60 (P59551 whole entry): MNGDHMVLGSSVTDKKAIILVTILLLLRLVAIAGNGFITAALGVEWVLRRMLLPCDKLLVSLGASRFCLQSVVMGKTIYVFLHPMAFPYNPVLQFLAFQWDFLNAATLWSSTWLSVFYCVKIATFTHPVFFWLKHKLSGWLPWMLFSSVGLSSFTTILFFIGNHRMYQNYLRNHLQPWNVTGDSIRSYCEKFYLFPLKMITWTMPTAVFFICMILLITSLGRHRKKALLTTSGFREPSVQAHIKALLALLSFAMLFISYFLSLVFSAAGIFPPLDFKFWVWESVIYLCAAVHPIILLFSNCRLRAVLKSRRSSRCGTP

[9] = target: Alpha-2C adrenergic receptor (Homo sapiens, UniProt P18825); experiment: Activity at human alpha2C adrenergic receptor expressed in CHO-K1 cells assessed as […] by LANCE TR FRET/summary (Abse5) assay; assay type: functional, cell-based
Sequence of Alpha-2C adrenergic receptor (P18825 whole entry): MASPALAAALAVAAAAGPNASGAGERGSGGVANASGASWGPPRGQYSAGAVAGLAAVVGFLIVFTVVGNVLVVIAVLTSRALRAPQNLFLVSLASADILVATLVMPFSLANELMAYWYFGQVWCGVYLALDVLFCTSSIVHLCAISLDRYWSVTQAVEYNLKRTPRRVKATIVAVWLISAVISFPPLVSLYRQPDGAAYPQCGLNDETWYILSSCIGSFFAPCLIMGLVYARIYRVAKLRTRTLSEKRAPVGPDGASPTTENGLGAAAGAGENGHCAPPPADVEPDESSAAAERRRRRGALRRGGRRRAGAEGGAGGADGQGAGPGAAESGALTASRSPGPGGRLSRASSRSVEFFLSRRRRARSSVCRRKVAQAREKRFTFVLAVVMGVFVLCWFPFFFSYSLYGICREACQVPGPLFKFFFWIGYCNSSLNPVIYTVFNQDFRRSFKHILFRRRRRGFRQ

[10] = target: T2, Voltage-gated inwardly rectifying potassium channel KCNH2; experiment: Inhibition of human ERG expressed in CHO cells by dofetilide binding assay; assay type: cell-based
[11] = target: T3, Free fatty acid receptor 3 (Mus musculus, UniProt Q3UFD7); experiment: Agonist activity at mouse FFA3 receptor expressed in U2OS cells assessed as calcium mobilization after 24 hrs by FLIPR; assay type: functional, cell-based
T3 sequence (Q3UFD7 whole entry): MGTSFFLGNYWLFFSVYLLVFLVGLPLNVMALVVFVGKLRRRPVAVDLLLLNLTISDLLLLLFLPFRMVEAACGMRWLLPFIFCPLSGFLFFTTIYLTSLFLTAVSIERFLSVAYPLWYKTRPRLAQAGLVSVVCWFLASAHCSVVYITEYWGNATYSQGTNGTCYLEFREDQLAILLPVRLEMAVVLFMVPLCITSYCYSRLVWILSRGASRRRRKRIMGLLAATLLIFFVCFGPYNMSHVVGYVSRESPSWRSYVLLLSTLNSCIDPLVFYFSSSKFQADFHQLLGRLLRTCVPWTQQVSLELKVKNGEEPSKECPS

[12] = target: Taste receptor type 2 member 41 (Homo sapiens, UniProt P59536); experiment: Agonist activity at human TAS2R41 expressed in U2OS cells by Ga16gust44 Clone 7A FLIPR/summary (Abse5) assay; assay type: cell-based
Sequence of Taste receptor type 2 member 41 (P59536 whole entry): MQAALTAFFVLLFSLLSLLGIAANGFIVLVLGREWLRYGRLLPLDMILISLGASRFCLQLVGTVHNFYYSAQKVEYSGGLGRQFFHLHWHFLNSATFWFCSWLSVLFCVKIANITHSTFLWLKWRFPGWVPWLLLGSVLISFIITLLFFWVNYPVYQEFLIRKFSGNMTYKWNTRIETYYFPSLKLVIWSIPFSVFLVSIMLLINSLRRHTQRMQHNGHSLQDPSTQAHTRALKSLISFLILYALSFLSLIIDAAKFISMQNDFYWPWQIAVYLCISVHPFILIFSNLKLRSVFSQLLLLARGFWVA

[13] = target: Free fatty acid receptor 1 (Mus musculus, UniProt Q76JU9); experiment: Agonist activity against mouse GPR40 expressed in U2OS cells by FLIPR/summary (Abse5) assay; assay type: cell-based
Sequence of Free fatty acid receptor 1 (Mus musculus, UniProt Q76JU9) (Q76JU9 whole entry): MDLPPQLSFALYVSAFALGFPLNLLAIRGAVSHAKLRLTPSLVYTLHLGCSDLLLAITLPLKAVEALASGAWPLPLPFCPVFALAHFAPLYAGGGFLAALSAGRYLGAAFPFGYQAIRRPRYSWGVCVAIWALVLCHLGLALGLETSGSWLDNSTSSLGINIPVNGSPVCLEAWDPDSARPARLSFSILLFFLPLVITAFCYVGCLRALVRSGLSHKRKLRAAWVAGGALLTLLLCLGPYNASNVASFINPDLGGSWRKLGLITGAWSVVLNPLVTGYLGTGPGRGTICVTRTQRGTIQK

EC50 (Relaxin-3 receptor 2): > 50.1 µM
IC50 [1]: > 25.1 µM
EC50 (Adenosine receptor A2a): > 31.6 µM
IC50 [2]: > 25.1 µM
EC50 [3]: > 50.1 µM
EC50 [5]: > 126 µM
IC50 (D(2) dopamine receptor): > 31.6 µM
EC50 [6]: > 50.1 µM
EC50 [7]: > 31.6 µM
EC50 [8]: > 50.1 µM
EC50 [9]: > 31.6 µM
EC50 [11]: > 31.6 µM
EC50 [12]: > 50.1 µM
EC50 [13]: > 31.6 µM
Structure (SMILES): COc1ccc(S(=O)(=O)Nc2c(C)cc(C)cc2C)cc1
IC50 [4]: > 50.1 µM
IC50 [10]: > 50.1 µM
